Test results: patent publication US4529587A, “Method of reducing sebum on the hair and skin” (Lever Brothers Company, priority 1982, dated 1985)
Where “and” joins values, the source holds several entries; their conditions need not be identical. Equal entries are not always repeated.

Key:
acetyl-SCoA-carboxylase = acetyl-SCoA-carboxylase activity in cultured human dermal fibroblasts (fixation of ^14 C-sodium bicarbonate into protein); assay type: cell-based
Procedure: In preliminary experiments the ability of biotin sulphone to reduce the activity of acetyl-SCoa-carboxylase in an in vitro assay was assessed using cultured human dermal fibroblasts as described in Ghneim et al (1981) Biochem. Soc. Trans. 9, 405-6 and references therein. Human dermal fibroblasts were maintained in culture for 3 days with 1 μM biotin sulphone in the presence of a nutrient medium containing 10% foetal calf serum. The level of naturally occurring biotin was about 10 nM. Enzyme activity was assayed in the cell pellet by the fixation of ^14 C-sodium bicarbonate into protein in the presence of acety-CoA under appropriate conditions. Control experiments were done in the absence of biotin sulphone and enzyme activities were calculated with respect to protein.

[1] = test system: ^14 C-acetate uptake into dermal lipids; assay: in vivo topical treatment of rats, ^14 C-acetate uptake into dermal lipids; set-up: species or system rat
Procedure: (§1) Ten, 3 week male weanling rats, clipped on left and right flanks, were divided into two groups of five animals. One group was untreated on the left flank while the right flank received the test solution (1 mg/ml biotin sulphone in 70% ethanol:30% water) twice a day (once per day at weekends) for six weeks. The second group received the ethanol/water carrier on the left flank and the test solution on the right. At the end of the treatment the rats were killed, skin removed and divided approximately into epidermis and dermis using a 0.2 mm keratatome cut. Samples of dermis containing most of the sebaceous tissue from either untreated (UN), vehicle (V) or test (T) treated skin were incubated in a nutrient medium (basal eagles medium +10% foetal calf seru, 20 mM hepes pH 7.4, antibiotics, 100 μM sodium acetate containing 1 μCi/ml sodium (1-^14 C) acetate for 19 hours at 37° C. The ^14 C-acetate is metabolically incorporated into lipids and gives a "snap shot" of the lipid synthesis profile over the 19 hour time period. At the end of the incubation samples were washed in ice cold medium without ^14 C-acetate, quenched in ice cold 5% trichloroacetic acid (TCA), homogenised and centrifuged to separate insoluble residue from TCA soluble material ("TCA" fraction). The TCA fraction contains nucleo dtides, small metabolites especially succinate, amino acids, small peptides and free ^14 C-acetate. Lipids were extracted in chloroform:methanol and subject to Folch washing essentially as described by Prottey el al., Brit. J. Dermatol. (1972) 87, 586-607 generating the following fractions : "lipids", "aqueous methanol" containing only a small proportion of skin lipids with a very low ^14 C count and an extracted "solid residue". The total ^14 C count in all these fractions was determined.
The following ratio provides a measure of lipid synthesis per unit volume of skin, that is the total ^14 C-acetate uptake into lipids (i.e. amount of lipid synthesis) divided by the ^14 C-acetate uptake into the remaining tissue fractions (i.e. a measure of sample size). (Remaining tissue="TCA" fraction+"solid residue").

[2] = test system: FFA and "Triglyceride" lipid synthesis; assay: in vivo topical treatment of rats, ^14 C-acetate incorporation into FFA and "triglyceride" lipid (thin layer chromatography fractions); set-up: species or system rat
Procedure: as §1
The radioactive lipids were fractionated into free fatty acids (FFA) monoglycerides (MG), diglycerides (trace only) and triglyerides (TG) using a standard, neutral solvent, thin layer chromatography system.
However ^14 C-acetate is also incorporated into the cholesterol synthetic pathway which should be largely unaffected by the biotin sulphone treatment. This will cause a "dilution" of the reduction seen above. Accordingly, the lipids whose synthesis is dependent on acetyl-SCoA-carboxylase have been isolated. These are free fatty acids (FFA), monoglyceride (MG), diglyeride (trace) triglyceride (TG). It is predicted that a greater reduction in the incorporation of ^14 C-acetate into "triglyceride" lipid should now be observed. As fatty acids are the primary product made by the acetyl-SCoA-carboxylase pathway in the sebaceous gland, results for this lipid class have been included separately, as well as for total "triglyceride" lipid; values of six of the rats are given in Table 3 below: […]

[3] = biotin sulphone treatment, rats
[4] = individual rats, 1 = 41,151 DPM ^14 C-acetate incorporated into lipid, corrected for sample size, topical 1 mg/ml, six weeks

O=C(O)CCCC[C@H]1[C@H]2NC(=O)N[C@H]2CS1(=O)=O [biotin sulphone]
nCi ^14 C-bicarbonate fixed per mg protein (acetyl-SCoA-carboxylase; 1 μM biotin sulphone, 3 days, 10% foetal calf serum, control 4.46): 3.26 nCi per mg protein
Acetyl-SCoA-carboxylase activity (%) (acetyl-SCoA-carboxylase; 1 μM biotin sulphone, 3 days, control = 100): 73%
reduction in acetyl-SCoA-carboxylase activity (acetyl-SCoA-carboxylase; culture in the presence of 1 μM biotin sulphone, vs control, 4320 min): 27%
Av. Test ratio: ^14 C-acetate uptake into lipids divided by uptake into remaining tissue ([1]; average of ten rats, control (UN or V) Av. 0.59): 0.49
change of Av. Test ratio vs control ([1]; average, Test vs UN or V): -18%
Test ratio: ^14 C-acetate uptake into lipids divided by uptake into remaining tissue (TCA fraction + solid residue) ([1]; individual rats A-J, 1 mg/ml in 70% ethanol:30% water, topical, twice a day, six weeks, dermis incubated 19 hours at 37° C.): 0.43 and 0.23 and 0.59 and 0.44 and 0.52 and 0.53 and 0.58 and 0.39 and 0.73
overall reduction in ^14 C-acetate uptake into dermal lipids ([1]; topical application, ten rats): 18%
FFA synthesis, Test, Av. ([2]; average of six rats, 1 = 41,151 DPM ^14 C-acetate, control Av. 1.50): 0.91
"Triglyceride" lipid synthesis (sum of FFA + MG + TG), Test, Av. ([2]; average of six rats, 1 = 41,151 DPM ^14 C-acetate, control Av. 18.24): 12.94
change of "Triglyceride" lipid synthesis vs control ([2]; average, Test vs V + UN): -29%
change of FFA synthesis vs control ([2]; average, Test vs V + UN): -39%
reduction of "Triglyceride" (FFA+MG+TG) synthesis [2, 3]: 29%
reduction of denovo FFA synthesis [2, 3]: 39%
"Triglyceride" lipid synthesis (sum of FFA + MG + TG), Test [2, 4]: 13.93 and 8.58 and 15.17 and 15.38 and 14.74 and 9.85
FFA synthesis, Test [2, 4]: 0.78 and 0.41 and 0.60 and 1.67 and 1.22
